Assay results reported in ChEMBL document CHEMBL5357058, “Norterpene Cyclic Peroxides from the Marine Sponge Diacarnus spinipoculum, Inhibitors of Transient Receptor Potential Ankyrin 1” (J Nat Prod, 2024).

What follows are molecules tested against Transient receptor potential cation channel subfamily A member 1 (Homo sapiens, UniProt O75762) (assay: Inhibition of human TRPA1 overexpressed in HEK293 cells assessed as reduction in AITC-induced calcium mobilization preincubated for 5 mins followed by AITC addition by FLIPR assay).
Transient receptor potential cation channel subfamily A member 1, sequence (O75762 whole entry): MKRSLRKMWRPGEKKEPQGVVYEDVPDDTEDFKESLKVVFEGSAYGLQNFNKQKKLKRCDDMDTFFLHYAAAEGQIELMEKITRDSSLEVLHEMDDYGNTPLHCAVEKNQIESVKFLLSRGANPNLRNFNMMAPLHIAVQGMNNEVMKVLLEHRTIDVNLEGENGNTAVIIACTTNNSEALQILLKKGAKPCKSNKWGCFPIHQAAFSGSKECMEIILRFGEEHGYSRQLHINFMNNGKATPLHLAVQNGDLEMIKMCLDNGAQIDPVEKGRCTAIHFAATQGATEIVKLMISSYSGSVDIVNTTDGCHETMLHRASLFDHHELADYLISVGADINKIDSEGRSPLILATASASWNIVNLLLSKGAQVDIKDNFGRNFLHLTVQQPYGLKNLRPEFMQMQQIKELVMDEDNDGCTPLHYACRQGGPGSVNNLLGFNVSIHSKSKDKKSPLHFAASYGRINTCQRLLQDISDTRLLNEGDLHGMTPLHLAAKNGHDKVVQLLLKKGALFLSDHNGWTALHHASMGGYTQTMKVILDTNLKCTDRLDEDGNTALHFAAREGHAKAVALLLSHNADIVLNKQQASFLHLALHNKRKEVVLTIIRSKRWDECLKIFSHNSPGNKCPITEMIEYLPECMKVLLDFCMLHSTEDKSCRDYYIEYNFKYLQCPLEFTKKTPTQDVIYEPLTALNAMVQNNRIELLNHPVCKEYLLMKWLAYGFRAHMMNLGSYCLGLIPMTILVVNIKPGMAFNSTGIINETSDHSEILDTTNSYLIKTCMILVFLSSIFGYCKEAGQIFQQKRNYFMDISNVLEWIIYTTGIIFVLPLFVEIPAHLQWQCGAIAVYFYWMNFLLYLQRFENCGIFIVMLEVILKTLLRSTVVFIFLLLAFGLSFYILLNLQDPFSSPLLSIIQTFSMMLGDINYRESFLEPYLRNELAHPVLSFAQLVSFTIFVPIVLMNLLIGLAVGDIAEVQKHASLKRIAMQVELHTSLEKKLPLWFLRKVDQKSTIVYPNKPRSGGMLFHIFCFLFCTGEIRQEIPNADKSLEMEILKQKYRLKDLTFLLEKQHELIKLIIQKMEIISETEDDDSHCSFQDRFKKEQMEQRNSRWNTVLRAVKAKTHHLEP
Format: cell-based

SMILES | IC50 [µM]
CC1=C(CC[C@]2(C)CC[C@H]([C@@H](C)C(=O)O)OO2)C(C)(C)CCC1 | > 30
C=C1CCCC(C)(C)C1CC[C@]1(C)CC[C@@H]([C@@H](C)C(=O)OC)OO1 (some centres not stated) | > 30
COC(=O)[C@H](C)[C@@H]1CC[C@@](C)(CCC2=C(C)CCCC2(C)C)OO1 | 29.3
CC1=C(CC/C(C)=C/CC[C@]2(C)CC[C@@H]([C@H](C)C(=O)O)OO2)C(C)(C)CCC1 | 5.6
CC1=C(CC/C(C)=C/CC[C@@]2(C)CC[C@@H]([C@H](C)C(=O)O)OO2)C(C)(C)CCC1=O | 15.3
C=C1CCC[C@H]2[C@](C)(CC[C@@]3(C)CC[C@H]([C@@H](C)C(=O)O)OO3)[C@@H](C)CC[C@]12C | 2
C=C1CCC[C@H]2[C@](C)(CC[C@@]3(C)CC[C@H]([C@@H](C)C(=O)OC)OO3)[C@@H](C)CC[C@]12C | 13.5
COC(=O)[C@H](C)[C@H]1CC[C@@](C)(CCC2=C(C)C(O)CCC2(C)C)OO1 (mixture of isomers) | > 30
COC(=O)[C@H](C)[C@@H]1CC[C@@](C)(CCC2=C(C)C(O)CCC2(C)C)OO1 (mixture of isomers) | > 30
COC(=O)[C@H](C)[C@@H]1CC[C@@](C)(CCC2=C(C)C(OC)CCC2(C)C)OO1 (mixture of isomers) | > 30
COC(=O)[C@H](C)[C@H]1CC[C@@](C)(CCC2=C(C)C(OC)CCC2(C)C)OO1 (mixture of isomers) | > 30
CC(=O)CCCC(C)(C)C(=O)CC/C(C)=C/CC[C@]1(C)CC[C@H]([C@@H](C)C(=O)O)OO1 [(+)-MUQUBILONE B] | > 30
COC(=O)[C@H](C)[C@H]1CC[C@@](C)(CCC2=C(C)C(=O)CCC2(C)C)OO1 [DIACARPEROXIDE A] | 22.1
CC1=C(CC/C(C)=C/CC[C@@]2(C)CC[C@@H]([C@H](C)C(=O)O)OO2)C(C)(C)CCC1 [EPIMUQUBILIN A] | 4.8
COC(=O)[C@H](C)[C@@H]1CC[C@@](C)(CCC2=C(C)C(=O)CCC2(C)C)OO1 [METHYL DIACARNOATE A] | > 30
COC(=O)[C@H](C)[C@H]1CC[C@@](C)(CCC2=C(C)CCCC2(C)C)OO1 [NUAPAPUIN A METHYL ESTER] | 14.1
C=C1CCCC(C)(C)C1CC[C@]1(C)CC[C@H]([C@@H](C)C(=O)OC)OO1 (some centres not stated) [NUAPAPUIN B] | 18.9
